# Data published in patent US12551576B2, “Chemiluminescent probes” (The General Hospital Corporation, priority 2020, dated 2026).
# Several values for one entry are separate records, joined by “and”; a condition that tells them apart may be missing. Equal entries are not always repeated. Entries after “also recorded” stand apart in the source; their conditions may differ.
# How the values were obtained:
# Aβ40 aggregates [1] = biological target: T1, Aβ40 aggregates (Homo sapiens, UniProt P05067); assay: In vivo mimic demonstration of DAS-CRET; details: FIG. 8E, subcutaneous injection in nude mouse
# Experimental: After solutions were prepared, one female 8-month old nude mouse was anesthetized, and the left hind limb was subcutaneously injected with the first solution and the right hind limbs was subcutaneously injected with the second solution. The mouse was then placed into the IVIS imaging chamber and images were captured from the dorsal side and from the ventral side with the open filter (500 nm-840 nm) and specific filters.
# Target sequence in this assay (P05067 672-711): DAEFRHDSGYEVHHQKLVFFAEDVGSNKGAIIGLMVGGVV
# prion = type: binding
# Aβ plaques [2] = biological target: T2, Aβ plaques (Homo sapiens, UniProt P05067); assay: In vitro histological study (brain slice staining); details: 5×FAD mouse brain slice incubated with ADLumin-1
# Experimental: In vitro histological study: a fresh brain tissue from a 24-month old APP/PS1 mouse was fixed in 4% formaldehyde for 24 hours and transferred into 30% sucrose at 4° C. until the tissue sunk. Then the tissue was embedded in OCT with gradual cooling over dry ice. […] Then the slice was covered with FluoroShield mounting medium (Abcam) and sealed with nail polish.
# [3] = test system: beta-sheet misfoldons in patient serum; assay: Chemiluminescence detection of beta-sheet misfoldons in disease serum; set-up: species or system human
# Experimental: Chemiluminescence detection beta-sheet misfoldons in disease serum by ADLumin-1: serum of AD patient contains abundant beta-sheet misfoldons that can be detected by ADLumin-1. ADLumin-1 (2.5 μM) was added to 100 μl non-diluted serum of AD patients, and serum from health control (HC) was used as the control. […] This is remarkable, since this difference is phenomenally large and is very useful for blood quality evaluation.
# Misfolded beta-sheets are associated with various diseases, including brain disorders (e.g., neurodegenerative disorders) and periphery diseases, particularly chronic diseases. The patient sera of chronic diseases also contains abundant beta-sheet misfoldons. In this regard, patient sera of multiple sclerosis, diabetes, rheumatoid arthritis and pulmonary fibrosis patients was used in this example.
# Tau = assay: Chemiluminescence with misfoldon aggregates in PBS (Tau); type: binding; details: ADLumin-1 2.5 μM, Tau aggregates 2.5 μM
# Aβ plaques [4] = biological target: T2, Aβ plaques; assay: Ex vivo histological study; type: in vivo, 5×FAD mouse; details: mouse sacrificed after two-photon imaging
# Experimental: The fresh brain tissue was fixed in 4% formaldehyde for 24 hours and transferred into 30% sucrose at 4° C. until the tissue sunk. Then the tissue was embedded in an OCT block, which was sectioned into 25-μm slice with a cryostat. Then the slice was covered with FluoroShield mounting medium (Abcam).
# Aβ40 aggregates [5] = biological target: T1, Aβ40 aggregates; assay: In vitro chemiluminescence study with Aβ aggregates in PBS; type: binding
# Target sequence in this assay (P05067 672-711 limits assumed): as the sequence (P05067 672-711) above
# [6] = biological target: Aβ plaques and cerebral amyloid angiopathy (CAA) (Homo sapiens, UniProt P05067)
# [7] = ROS sensitivity of ADLumin-1; type: physicochemical; details: H2O2, ClO4−, TBHP, KO2; compared to O2 bubbling
# Experimental: Oxygen and ROS sensitivity of ADLumin-1: A 100.0 μL DMSO solution of ADLumin-1 (200.0 μM) was added to a well in a 96-well plate. One group was bubbled with oxygen for 5 seconds at different time points, and the control group was sealed without bubbling. Once the bubbling was over, the plate was subjected to chemiluminescence intensity recording with the IVIS system with the open filter setting (500 nm-840 nm). For ROS tests, A PBS solution (240 μL) was incubated in an Eppendorf tube. To each of above tubes, different ROS (H2O2 30 μL, […] 30 μL, TBHP 30 μL and KO2 30 μL) was added, respectively. Then, a solution of ADLumin-1 in DMSO (30 μL, 250.0 μM) was added. Finally, 100.0 μL of the resulting solution was transferred into a well of 96-well plate, and triplicated samples were prepared. Chemiluminescence images were obtained with an IVIS system under the open filter (500 nm-840 nm).
# PA-K = assay: Chemiluminescence detection of model aggregates (PA-K); type: binding; details: ADLumin-1 2.5 μM, PA-K 0.5 mg/ml
# [8] = biological target: alpha-synuclein in human serum (Homo sapiens, UniProt P37840); assay: Chemiluminescence of synuclein incubated with human serum
# human serum albumin = human serum albumin (Homo sapiens, UniProt P02768); assay: Aβ aggregates incubated with human serum albumin
# Aβ40 aggregates [9] = biological target: T1, Aβ40 aggregates; assay: In vitro fluorescence spectral testing of ADLumin-1 with Aβ40 aggregates; type: binding
# Target sequence in this assay (P05067 672-711 limits assumed): as the sequence (P05067 672-711) above
# Aβ40 aggregates [10] = biological target: T1, Aβ40 aggregates; assay: Binding affinity of ADLumin-1 with Aβs (fluorescence titration); details: ADLumin-1 250 nM, Aβ40 aggregates 0 to 8 μM, fluorescence at 515 nm
# Target sequence in this assay (P05067 672-711 limits assumed): as the sequence (P05067 672-711) above
# PA-E2 = assay: Chemiluminescence detection of model aggregates (PA-E2 vs PA-E); type: binding
# amylin = amylin (Homo sapiens, UniProt P10997); type: binding
# [11] = biological target: Aβ aggregates in mouse brain homogenate (Homo sapiens, UniProt P05067); assay: In vitro chemiluminescence study in brain homogenate; type: binding
# [12] = two-photon imaging, 5×FAD mouse, i.v. 4 mg/kg
# Chain of Aβ plaques and cerebral amyloid angiopathy (CAA) (P05067 672-713 limits assumed): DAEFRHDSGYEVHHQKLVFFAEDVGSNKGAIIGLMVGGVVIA
# T2 sequence (P05067 672-713 limits assumed): as above
# Chain of Aβ aggregates in mouse brain homogenate (P05067 672-711 limits assumed): as the sequence (P05067 672-711) above
# Chain of human serum albumin (P02768 25-609): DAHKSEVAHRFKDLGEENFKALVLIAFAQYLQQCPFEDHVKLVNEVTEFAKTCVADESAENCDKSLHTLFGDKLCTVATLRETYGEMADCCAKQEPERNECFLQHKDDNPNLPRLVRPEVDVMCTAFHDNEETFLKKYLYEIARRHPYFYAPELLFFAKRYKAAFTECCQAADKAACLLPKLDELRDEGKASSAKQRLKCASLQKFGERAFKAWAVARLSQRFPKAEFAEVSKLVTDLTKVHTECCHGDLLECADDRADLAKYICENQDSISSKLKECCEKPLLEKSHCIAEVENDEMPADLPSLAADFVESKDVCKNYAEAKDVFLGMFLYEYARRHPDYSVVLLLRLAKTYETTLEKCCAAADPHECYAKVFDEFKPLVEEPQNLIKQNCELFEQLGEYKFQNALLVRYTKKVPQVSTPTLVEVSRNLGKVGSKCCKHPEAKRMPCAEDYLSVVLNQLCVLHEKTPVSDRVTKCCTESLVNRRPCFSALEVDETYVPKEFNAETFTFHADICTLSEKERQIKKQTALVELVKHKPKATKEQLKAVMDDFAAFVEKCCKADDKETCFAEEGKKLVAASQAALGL
# Chain of amylin (P10997 34-70 limits assumed): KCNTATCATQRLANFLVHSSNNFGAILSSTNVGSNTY
smiles,measurement,setting,value
"Cc1nc2c[nH]c(/C=C/C=C/c3ccc(N(C)C)cc3)cn-2c1=O [ADLumin-1, 6-((1E,3E)-4-(4-(dimethylamino)phenyl)buta-1,3-dien-1-yl)-2-methylimidazo[1,2-a]pyrazin-3(7H)-one]",SNR (ROI1/ROI2),Aβ40 aggregates [1],> 2000 and 2189
same,largest chemiluminescence difference with aggregates,prion,2.22 fold
same,signal decay T½,prion,11.36 min
same,signal to noise ratio (SNR) of plaques,Aβ plaques [2],2.93
same,chemiluminescence signal AD serum vs HC serum,"[3]; ADLumin-1 2.5 μM, 100 μl non-diluted serum",> 50 fold and 52.2 fold
same,chemiluminescence signal disease serum vs HC control,[3]; diabetes serum,44.7 fold
same,chemiluminescence signal disease serum vs HC control,[3]; multiple sclerosis serum,34.9 fold
same,chemiluminescence signal disease serum vs HC control,[3]; pulmonary fibrosis serum,16.6 fold
same,chemiluminescence signal disease serum vs HC control,[3]; rheumatoid arthritis serum,29.3 fold
same,largest chemiluminescence difference with aggregates,Tau,7.02 fold
same,brightness of plaques in brain slides,Aβ plaques [4],considerably bright
same,"chemiluminescence signal, wells with Aβs vs wells without Aβs","Aβ40 aggregates [5]; IVIS imaging system, open filter, 96-well plate",104 fold
same,chemiluminescence intensity increase upon incubation with Aβs,"Aβ40 aggregates [5]; PBS buffer with 2% DMSO, at 540 nm",about 216 fold
same,amplification of chemiluminescence intensity upon mixing with Aβs in vitro,"Aβ40 aggregates [5]; in vitro, summary statement",216 fold and > 200 fold
same,SNR of CAAs,[6]; [12],~26.0
same,SNR of plaques,[6]; [12],about 17.0
same,time to peak intensity in CAA,[6]; two-photon time-course imaging,≤ 1 min
same,time to peak intensity in plaques,[6]; two-photon time-course imaging,5 min
same,chemiluminescence response towards ROS species,[7],no significant changes; also recorded: considerably low; also recorded: relatively small
same,chemiluminescence signal increase vs ADLumin-1 only in PBS,PA-K,2.49 fold
same,chemiluminescence difference vs control group,[8],4.30 fold
same,difference between Aβ/albumin and albumin only group,human serum albumin,no significant differences
same,fluorescence intensity increasing upon mixing with Aβs,Aβ40 aggregates [9],100 fold
same,shift of fluorescence emission of the probe with Aβs,Aβ40 aggregates [9],significant blue-shift
same,Kd,Aβ40 aggregates [10],2100 nM
same,chemiluminescence intensity PA-E2 group vs PA-E group,PA-E2,4.39 fold
same,largest chemiluminescence difference with aggregates,amylin,4.20 fold
same,Aβ concentration range with linear intensity increase,[11],0 to 12.5 µM
same,"chemiluminescence signal, Aβ group vs no Aβ",[11]; Aβ aggregates 12.5 μM,about 11.6 fold
